Read-outs that look alike come from different tables or passages of the source. Values belong to the molecule of their own block, whether it stands above or below them. Ends that are not written are not given here.
Key:
[1] = target: T1, IAPP (Fluos-IAPP, mostly monomers) (Homo sapiens, UniProt P10997); assay: Fluorescence spectroscopic titration of Fluos-IAPP; assay type: binding; settings: for Kd: SD
T1 construct: made in house; host or cells: chemical synthesis
T1 sequence (P10997 34-70 limits assumed): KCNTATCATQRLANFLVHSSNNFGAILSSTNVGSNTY
Experimental: Fluorescence spectros copic titrations
Fluorescence spectrosco pic titration studies w ere performed with a JASC O FP-6500 fluorescence spectrophotometer using a previously described experimental protocol.[1, 5, 7] Briefly, excitation was at 492 nm and emission spectra were recorded between 500 and 600 nm. The app arent (app.) Kds of the interactions of IAPP with LL-37 and its segments LL-37(1- 14) and LL-37(15- 37) were quantified by titrating synthetic N α-amino-terminal fluorescein labeled IAPP (5 nM) with various amounts of each of the peptides . For all exp eri ments , freshly made stocks of peptides and their fluorescently lab eled an alogs in HF IP wer e used. Measurements w er e performed in 10 mM sodium phosphate buffer (pH 7.4) containing 1% HFIP within 2-5 min following solution preparation at room temperature. Of note, under these conditions freshly made Fluos-IAPP (5 nM) solutions consist mostly of monomers.[1] App. Kds were calculated using 1/1 binding models as previously described and ar e means (± SD) of three binding curves.[1, 3, 5, 7]
Cross-linking, NuPAGE, and Western Blot analysis
Cross-linking studies were preformed using a previously developed assay system.[5] Briefly, solutions of IAPP alone (30 µM) and its mixtures with LL-37 or scrLL- 37 at the indicated molar ratios (IAPP/LL-37 at 1/1 or 1/0.1) wer e p repared in aqueous sodium phosphate buffer, pH 7.4,

[2] = tested on: cytotoxic IAPP assemblies on RIN5fm cells
RIN5fm cells = settings: LL-37 alone, 7 days aged, 1 assay, n=3
[3] = target: T2, IAPP monomers and fibrils (Homo sapiens, UniProt P10997); assay: Dot blot binding to IAPP monomers and fibrils; settings: IAPP monomers and fibrils (40 µg) on nitrocellulose, FAM-LL-37 200 nM, overnight 10 °C; representative of 4 assays
T2 construct: The 37‐residue IAPP is secreted from the β‐cells together with insulin; made in house; host or cells: chemical synthesis (Fmoc solid-phase synthesis on Rink resin)
T2 sequence (P10997 34-70 limits assumed): T1 sequence (P10997 34-70 limits assumed)
Experimental: Solutions were cross-linked using 25% aqueous glutaraldehyde (Sigma-Aldrich) an d 10% aqueous trichloro acetic acid (TCA ) was […] buffer, boiled for 5 min, and subjected to NuPAGE electrophoresis in 4- 12% Bis-Tris gels with MES running buffer (Invitrogen). The s ame volume of each solution (same IAPP amount) was loaded in all l anes. Peptid es were blotted using a X Cell II Blot Module blotting system (Invitrogen ). IAPP or […] using a polyclonal rabbit anti-IAPP antibody (Peninsula) or a monoclonal mouse anti-LL- 37 antibody (Santa Cruz Biotechnology), resp ectively in combination with suitable peroxidase (POD)-coupled s econdary antibodies (Pierce & Am […] Super Signal West Dura Extended Duration Substrate (Pierce). Of note, previous studies provided evidence for the […] of th e cross-linking assay; in addition, no new bands were obs […]-37 (1/1) mixtures (data not shown).[5] Dot blot analysis IAPP monomers or IAPP fibrils (fIAPP) containin g solutions (different am ounts up to 40 μg) were spotted onto a nitrocellulose membrane. […] In addition, to control for t he interference of fibril autofluorescence, a membrane containing spotted f IA P P which had been incubated in buffer alone w/o FAM-LL-37 was included in each assay; in general, fIAPP autofluorescence contribute d up to 25% of the total amount of fluorescence observed in fIAPP bound toFAM -LL- 37. […]

[4] = Fluos-IAPP 5 nM, 10 mM sodium phosphate pH 7.4, 1% HFIP, room temperature, 1/1 binding model, mean (±SD) of three binding curves, read-out: app. Kd of interaction with Fluos-IAPP

Molecule: CC[C@H](C)[C@H](NC(=O)[C@H](CCCCN)NC(=O)[C@H](CCC(=O)O)NC(=O)[C@H](CCCCN)NC(=O)[C@H](CO)NC(=O)[C@H](CCCCN)NC(=O)[C@H](CCCNC(=N)N)NC(=O)[C@H](Cc1ccccc1)NC(=O)[C@H](Cc1ccccc1)NC(=O)[C@H](CC(=O)O)NC(=O)CNC(=O)[C@H](CC(C)C)NC(=O)[C@@H](N)CC(C)C)C(=O)NCC(=O)N[C@@H](CCCCN)C(=O)N[C@@H](CCC(=O)O)C(=O)N[C@@H](Cc1ccccc1)C(=O)N[C@@H](CCCCN)C(=O)N[C@@H](CCCNC(=N)N)C(=O)N[C@H](C(=O)N[C@H](C(=O)N[C@@H](CCC(N)=O)C(=O)N[C@@H](CCCNC(=N)N)C(=O)N[C@H](C(=O)N[C@@H](CCCCN)C(=O)N[C@@H](CC(=O)O)C(=O)N[C@@H](Cc1ccccc1)C(=O)N[C@@H](CC(C)C)C(=O)N[C@@H](CCCNC(=N)N)C(=O)N[C@@H](CC(N)=O)C(=O)N[C@@H](CC(C)C)C(=O)N[C@H](C(=O)N1CCC[C@H]1C(=O)N[C@@H](CCCNC(=N)N)C(=O)N[C@H](C(=O)N[C@@H](CCC(=O)O)C(=O)N[C@@H](CO)C(=O)O)[C@@H](C)O)C(C)C)[C@@H](C)CC)C(C)C)[C@@H](C)CC [LL-37]
increase in fluorescence emission of Fluos-IAPP ([1]; Fluos-IAPP 5 nM with 100-fold molar excess of LL-37, pH 7.4): 322%
Kd [1]: 88.1 nM
effect on formation of cytotoxic IAPP assemblies (MTT reduction) [2]: effectively suppressed
IC50 ([2]; rat, SD): 17 nM
cytotoxicity of peptide alone (MTT reduction) (RIN5fm cells): not cytotoxic

binding to IAPP fibrils and monomers (dot blot) [3]: bound both IAPP fibrils and monomers
Molecule: FAM-LL-37: N-terminal fluorescein-labeled LL-37 with 6-aminohexanoic acid spacer, from Anaspec

Kd [1, 4]: 31.9 nM
Molecule: KEFKRIVQRIKDFLRNLVPRTES [LL-37(15-37)]

Kd [1, 4]: 2540 nM
Molecule: LLGDFFRKSKEKIG [LL-37(1-14)]

Source: PMC7497016, “The Human Host‐Defense Peptide Cathelicidin LL‐37 is a Nanomolar Inhibitor of Amyloid Self‐Assembly of Islet Amyloid Polypeptide (IAPP)” (Angewandte Chemie (International Ed. in English), 2020)
